Earlier results, collected in EP3263095A1, “A PHARMACEUTICAL FORMULATION OF OLAPARIB” (Zentiva K.S., priority 2016, dated 2018).

Conditions: EMA/CHMP/789139/2014

Group of the Biopharmaceutical Classification System (low solubility and bioavailability): Group 4
SMILES: O=C(c1cc(Cc2n[nH]c(=O)c3ccccc23)ccc1F)N1CCN(C(=O)C2CC2)CC1 [olaparib, 4-[(3-[(4-cyclopropylcarbonyl)piperazin-4-yl]carbonyl)-4-fluorophenyl]methyl(2H)-phtalazin-1-one]
